Like-named read-outs stand apart in the source and are kept apart here.
What was measured:
[1] = Formation constants of mixed-ligand half-sandwich complexes (UV-vis and 1H NMR); format: physicochemical; details: aqua complex + monodentate ligand; I = 0.10 M (KCl); t = 25.0 °C; UV-vis and 1H NMR
Procedure: NMR spectroscopic studies were carried out on a Bruker Avance III HD Ascend 500 Plus instrument. For the aqueous samples, ^1H NMR spectra were recorded with the WATERGATE water suppression pulse scheme using DSS internal standard. The highest peak of DSS was 0.00 ppm. The measurement was very similar to the UV-vis measurement since the complex–to–monodentate ligand ratio was also between 0–10 equivalents; the spectra were recorded after the given waiting time. […] This technique was useful in those cases where no spectral change was visible during the UV-vis titrations.
In both measurement methods, the formation constant (K) was obtained using the computer program PSEQUAD [38].
It is worthwhile to mention that the liberation of the bidentate ligand was not detected even at higher monodentate ligand excess (~10), which means that the disruption of the bond between the bidentate ligand and the metal center is not feasible under these conditions. The calculated formation constants are compared in Figure 5 and are collected in Table S2. The formation of the mixed-ligand complexes was not detected in three cases under the applied conditions, namely [Ru(p-cym)(en)(mim)]^2+, [Ru(p-cym)(phen)(mim)]^2+, and [Ru(p-cym)(en)(Py)]^2+. For these complexes, only a higher limit of the formation constant could be given, assuming that a maximum of 5% of the complex would form (limit of detection) under the conditions used for ^1H NMR spectroscopy. Based on Figure 5, the following trends are observed in the formation constants: (i) [RhCp*(en)(H2O)]^2+ and [RhCp*(phen)(H2O)]^2+ have a stronger monodentate ligand-binding ability than the Ru(p-cym) analogs; (ii) the formation constants of the [Ru(p-cym)(8HQH-1)(N)]^+ complexes are similar or somewhat higher than those of the RhCp* analogs; (iii) a stability trend for the monodentate ligand: mim > bim > Py (iv) and the bidentate ligand: 8HQH-1 > phen ≥ en can be seen.

[2] = Proton dissociation constants of the coordinated water in [M(arene)(N,N/O)(H2O)]2+/+ complexes (UV-vis titration)
Source text: The proton dissociation of the aqua ligand in the [M(arene)(N,N/O)(H2O)]^2+/+ complexes (Scheme 2) results in the inert mixed-hydroxido species (general formula: [M(arene)(N,N/O)(OH)]^+/0).

[3] = tested on: Colo205 human colon adenocarcinoma cell line (doxorubicin-sensitive); assay: MTT assay, cytotoxicity at pH 6 and 7; format: cell-based; details: Colo205, 72 h incubation, read-out: IC50
Procedure: (§1) All cell culture reagents were obtained from Sigma-Aldrich (Merck KGaA, Darmstadt, Germany) and plasticware from Sarstedt (Nümbrecht, Germany). Human colonic adenocarcinoma cell lines Colo205 (catalog number: ATCC-CCL-222) and its doxorubicin-resistant counterpart Colo320 (catalog number: ATCC-CCL-220.1) were purchased from LGC Promochem (Teddington, UK). The cells were cultured in RPMI 1640 medium supplemented with 10% heat-inactivated fetal bovine serum, 2 mM L-glutamine, 1 mM sodium pyruvate, and 100 mM HEPES buffer, adjusting the pH to 6.0 or 7.0. The cells were incubated at 37 °C in a 5% CO2–95% air atmosphere. The semiadherent human colon cancer cells were detached with Trypsin-Versene solution for 5 min at 37 °C.
(§2) The solutions were freshly prepared prior to measurements (see Section 2.1). […] Firstly, these samples were diluted in complete culture medium; then, two-fold serial dilutions of the compounds were prepared in 100 μL of RPMI 1640, horizontally. The semiadherent colonic adenocarcinoma cells were treated with Trypsin-Versene solution. They were adjusted to a density of 1 × 10^4 cells in 100 μL of RPMI 1640 medium and were added to each well, with the exception of the medium control wells. The final volume of the wells containing compounds and cells was 200 μL. Samples were triplicated. The pH of the medium was adjusted to 6.0 or 7.0.
(§3) The culture plates were incubated at 37 °C for 72 h; at the end of the incubation period, 20 μL of MTT solution (from a stock solution of 5 mg/mL) was added to each well. After incubation at 37 °C for 4 h, 100 μL of SDS solution (10% in 0.01 M HCI) was added to each well, and the plates were further incubated at 37 °C overnight. Cell growth was determined by measuring the optical density (OD) at 540/630 nm with a Multiscan EX ELISA reader (Thermo Labsystems, Cheshire, WA, USA). […] Curves were fitted using GraphPad Prism software (2022, version 9.4.1, Graphpad Software (LLC) d.b.a Dotmatics, San Diego, CA, USA) using the sigmoidal dose–response model (comparing variable and fixed slopes).
(§4) The pH-dependent solution speciation of the selected mixed-ligand complexes is an important feature in the hypothesized mechanism of action, and the modeling of acidosis is necessary for the in vitro anticancer assays. In order to find out the cytotoxicity difference based on the pH of the medium, cytotoxic activity was determined at pH 6 and 7 by MTT assay in two human colon adenocarcinoma cell lines (doxorubicin-sensitive Colo205 and doxorubicin-resistant Colo320). […] The mixed-ligand complexes were prepared prior to the measurements, as was already described in Section 2.1. With this method, the effect of the different counter ions could be avoided, and a more adequate comparison of the mixed-ligand complexes could be conducted.

[4] = tested on: Colo320 human colon adenocarcinoma cell line (doxorubicin-resistant); assay: MTT assay, cytotoxicity at pH 6 and 7; format: cell-based; details: Colo320, 72 h incubation, read-out: IC50
Procedure: as §1, §2, §3, §4

[5] = tested on: E. coli ATCC 25922 (sensitive); assay: Antibacterial assay, MIC in 96-well plates at different pH; format: cell-based; details: E. coli sensitive, after one day, read-out: MIC
Source text: (§5) The antibacterial effect was studied in two Gram-positive and in two Gram-negative strains. The Gram-positive S. aureus ATCC 25923 (ATCC, Manassas, VA, USA) is a methicillin-susceptible reference bacterial strain, while S. aureus 272123 is a clinical isolate and resistant to methicillin and ofloxacin (MRSA), which was given by Prof. Dr. Leonard Amaral (Institute of Hygiene and Tropical Medicine, Lisbon, Portugal). The Gram-negative strains were E. coli ATCC 25922 (ATCC, Manassas, VA, USA), which is sensitive to antibiotics, and E. coli 32313 (provided by the Institute of Clinical Microbiology, University of Szeged, Hungary), which is resistant to different antibiotics (trimethoprim/sulfamethoxazole, gentamicin, ciprofloxacin, and norfloxacin).
(§6) The minimum inhibitory concentrations (MICs) of the compounds were determined in 96-well plates based on the Clinical and Laboratory Standard Institute guidelines. The compounds were diluted in 100 μL of Mueller Hinton broth. Then, an overnight bacterial culture diluted 10,000 times in 100 μL of medium was added to each well, with the exception of the medium control wells. For each strain and each tested compound, four pH values were set (5, 6, 7, and 8). Each sample was triplicated.

[6] = tested on: E. coli 32313 (resistant); assay: as above; format: cell-based; details: E. coli resistant, after one day, read-out: MIC
Source text: as §5, §6

[7] = tested on: S. aureus ATCC 25923 (methicillin-susceptible); assay: as above; format: cell-based; details: S. aureus sensitive, after one day, read-out: MIC
Source text: as §5, §6

S. aureus 272123 (MRSA) = assay: as above; format: cell-based; details: read-out: MIC
Source text: as §5, §6

[8] = pH 6, listed as [RhCp*(phen)Cl]Cl +Py
[9] = pH 7, listed as [RhCp*(phen)Cl]Cl +Py

In the case of `Cc1c(C)c(C)[c-](C)c1C.[Rh+2][O]c1cccc2cccnc12.c1ccc2[nH]cnc2c1` [[RhCp*(8HQH-1)(H2O)]+ + bim], the “Formation constant logK of mixed-ligand complex” value (“Formation constant logK” below) [1] is reported as 3.4 ± 0.1.

With `Cc1c(C)c(C)[c-](C)c1C.O.[O-]c1cccc2cccnc12.[Rh+3]` [[RhCp*(8HQH-1)(H2O)]+] the “pKa of the coordinated water molecule” value [2] was 10.6±0.1.

With `Cc1c(C)c(C)[c-](C)c1C.[Cl-].[Rh+2][O]c1cccc2cccnc12.c1ccncc1` [[RhCp*(8HQH−1)Cl] +Py] the IC50 ([3]; pH 6) was 7.2 ± 0.4 µM, the IC50 ([3]; pH 7) was 7.3 ± 0.3 µM and the IC50 ([4]; pH 6) was 6.2 ± 0.5 µM. It also gave an IC50 ([4]; pH 7) of 5.9 ± 0.1 µM, an MIC ([5]; pH 6) greater than 100 µM and an MIC ([5]; pH 7) greater than 100 µM. It also gave an MIC ([6]; pH 6) greater than 100 µM, an MIC ([6]; pH 7) greater than 100 µM and an MIC ([7]; pH 7) of 12.5 µM. The MIC (S. aureus 272123 (MRSA); pH 6, after one day) was 50 µM, the MIC (S. aureus 272123 (MRSA); pH 7, after one day) was 12.5 µM and the “Formation constant logK” value [1] was 3.0 ± 0.1.

For `Cc1c(C)c(C)[c-](C)c1C.[Cl][Rh+][O]c1cccc2cccnc12` [[RhCp*(8HQH−1)Cl]], the IC50 ([3]; pH 6) was 8.1 ± 0.5 µM, the IC50 ([3]; pH 7) was 8.8 ± 0.4 µM and the IC50 ([4]; pH 6) was 6.1 ± 0.2 µM. The IC50 ([4]; pH 7) was 3.3 ± 0.1 µM, the MIC ([5]; pH 5) was greater than 100 µM and the MIC ([5]; pH 6) was greater than 100 µM. For the same compound, the MIC ([5]; pH 7) was greater than 100 µM, the MIC ([5]; pH 8) was greater than 100 µM and the MIC ([6]; pH 5) was greater than 100 µM. For the same compound, the MIC ([6]; pH 6) was greater than 100 µM, the MIC ([6]; pH 7) was greater than 100 µM and the MIC ([6]; pH 8) was greater than 100 µM. It also gave an MIC ([7]; pH 7) of 12.5 µM, an MIC ([7]; pH 8) of 12.5 µM and an MIC (S. aureus 272123 (MRSA); pH 5, after one day) of 50 µM. It also gave an MIC (S. aureus 272123 (MRSA); pH 6, after one day) of 12.5 µM, an MIC (S. aureus 272123 (MRSA); pH 7, after one day) of 12.5 µM and an MIC (S. aureus 272123 (MRSA); pH 8, after one day) of 12.5 µM.

For `Cc1c(C)c(C)[c-](C)c1C.NCCN.[Rh+3].c1ccc2[nH]cnc2c1` [[RhCp*(en)(H2O)]2+ + bim], the “Formation constant logK” value [1] was 3.3 ± 0.2.

In the case of `Cc1c(C)c(C)[c-](C)c1C.[Rh+3].c1ccncc1.c1cnc2c(c1)ccc1cccnc12` [[RhCp*(phen)(Py)]^2+], the MIC ([5]; pH 5) is reported as greater than 100 µM, the MIC [5, 8] is reported as greater than 100 µM and the MIC [5, 9] is reported as greater than 100 µM. The MIC ([5]; pH 8) was greater than 100 µM, the MIC ([6]; pH 5) was greater than 100 µM and the MIC [6, 8] was greater than 100 µM. For the same compound, the MIC [6, 9] was greater than 100 µM, the MIC ([6]; pH 8) was greater than 100 µM and the MIC [7, 9] was greater than 100 µM. It also gave an MIC ([7]; pH 8) greater than 100 µM, an MIC (S. aureus 272123 (MRSA); pH 5, after one day) greater than 100 µM and an MIC (S. aureus 272123 (MRSA); pH 6, after one day, listed as [RhCp*(phen)Cl]Cl +Py) greater than 100 µM. The MIC (S. aureus 272123 (MRSA); pH 7, after one day, listed as [RhCp*(phen)Cl]Cl +Py) was greater than 100 µM, the MIC (S. aureus 272123 (MRSA); pH 8, after one day) was greater than 100 µM and the “Formation constant logK” value [1] was 4.1 ± 0.1.

For `Cc1c(C)c(C)[c-](C)c1C.[Rh+3].c1ccc2[nH]cnc2c1.c1cnc2c(c1)ccc1cccnc12` [[RhCp*(phen)(bim)]^2+], the “Formation constant logK” value [1] was 4.9 ± 0.2.

Reference: PMC9964319, “Half-Sandwich Rhodium Complexes with Releasable N-Donor Monodentate Ligands: Solution Chemical Properties and the Possibility for Acidosis Activation” (Pharmaceutics, 2023)
